From article PMC6537702, “Design, synthesis, molecular modelling, and biological evaluation of novel substituted pyrimidine derivatives as potential anticancer agents for hepatocellular carcinoma” (Journal of Enzyme Inhibition and Medicinal Chemistry, 2019)
In brackets after ≈: the same amount, converted by molar mass. Where two headings read alike, the source gives them in different places.

Key:
HepG2 cell line = assay: Resazurin cell growth inhibition assay, HepG2; assay type: cell-based, human; conditions: for IC50: Homo sapiens
Excerpt: (§1) All compounds 2a-e, 3a-d, and PPAD’s 4a-t were subjected to a screening system for evaluation of their anticancer activity against cell line of human cancer, namely liver (HepG2 and Huh-7) cancer and normal fibroblast cells obtained from the German Cancer Research Center (DKFZ), following the Resazurin Cell Growth Inhibition Assay[45] in comparison to the standard treatment using DOX (see Supplementary).
(§2) Cell culture and treatment
(§3) All reagents were handled in a sterile fume hood. DMEM medium, and fetal bovine serum (FBS) were purchased from Gibco;phosphate-buffered saline pH 7.4 (PBS) and trypsin-EDTA were obtained from Sigmae Aldrich. Alamar Blue or Resazurin (Promega,Mannheim, Germany) reduction assay was used to assess the cytotoxicity of the studied samples. The growth medium (DMEMmedium with 10% FBS, 10 0 U/mL penicillin, and 10 0 mg/L streptomycin), and alamar blue were stored at 48 C, while trypsineEDTA and FBS were stored frozen at 208C and thawed before use; PBS was stored at room temperature. The Hep-G2, Huh-7 and normal fibroblast cells were obtained from the German Cancer Research Center (DKFZ).Cells were cultured in 50 cm2 culture flask s (Corning) using DMEM medium supplemented with 10% FBS, penicillin (10 0 IU/mL), and streptomycin ([…]). The culture was maintained at 37 C atmosphere of 5% CO2 and 95% relative humidity. The cells were transferred to a new fl ask every 2 days and treated with trypsineEDTA to detach them from the flask . Cells were counted under a microscope using a hemacytometer (Hausser Scientific).Cell solutions were diluted with growth medium to a concentration of 1 *10^5 cells/mL and transferred to a 96-well plate, and treated with gradient concentrations of test compounds.
(§4) Resazurin cell growth inhibition assay
(§5) Alamar Blue or Resazurin (Promega, Mannheim, Germany) reduction assay was used to assess the cytotoxicity of the studied samples. The assay tests cellular viability and mitochondrial function. Briefly y, adherent cells were grown in tissue culture flask s, and then harvested by treating the fl asks with 0.025% trypsin and0.25 mM EDTA for 5 min. Once detached, cells were washed, counted and an aliquot (5 * 103cells) was placed in each well of a96-well cell culture plate in a total volume of […]. Cells were allowed to attach overnight and then treated with samples. The final concentration of samples ranged from 0 to 10 0 mM. After 4 8 h,[…] Resazurin 0.01% w/v solution was added to each well and the plates were incubated at 37C for 1 -2 h. Fluorescence was measured on an automated 96-well Infinite M2000 ProTM plate reader (Tecan, Crailsheim, Germany) using an excit ation wave-length of 54 4 nm and an emission wavelength of 590 nm. Doxorubicin was used as positive control. Each assay was done at least three times, with two replicates each. The viability was compared based on a comparison with untreated cells. IC50(on cancer cells) were the concentration of sample required to inhibit 50% of the cell proliferation and were calculated from a calibration curve by a linear regression using Microsoft Excel

[1] = Resazurin cell growth inhibition assay, normal fibroblast cells; assay type: cell-based; conditions: M ± SEM of three independent experiments, read-out: Cytotoxic activity IC50, Fibroblast
Excerpt: as §1, §2, §3, §4, §5

Huh-7 cell line = assay: Resazurin cell growth inhibition assay, Huh-7; assay type: cell-based, human; conditions: Homo sapiens
Excerpt: as §1, §2, §3, §4, §5

[2] = HepG2, 48 h, resazurin assay, 48 h, M ± SEM of three independent experiments, read-out: Cytotoxic activity IC50, HepG2 cell line
[3] = Huh-7, 48 h, resazurin assay, 48 h, M ± SEM of three independent experiments, read-out: Cytotoxic activity IC50, Huh-7 cell line

| Structure (SMILES) | melting point [°C] | IC50 (Huh-7 cell line; Huh-7, converted from μg/mL, read-out: IC50 against Huh-7 cell line, equivalent in μM) [µM] | IC50 (HepG2 cell line; HepG2, converted from μg/mL, read-out: IC50 against HepG2 cell line, equivalent in μM) [µM] | IC50 (HepG2 cell line; [2]) [µg/mL] | IC50 at 48 h [1] [µg/mL] | IC50 (Huh-7 cell line; [3]) [µg/mL] | Cytotoxic activity IC50, HepG2 cell line (HepG2 cell line; resazurin assay, 48 h, M ± SEM of three independent experiments) [µg/mL] |
| --- | --- | --- | --- | --- | --- | --- | --- |
| O=C(/C=C/c1ccc(F)cc1)c1c2ccccc2cc2ccccc12 [Compound 3a] |  |  |  | 22.2 ± 2.45 | 40.6 ± 2.48 (≈ 124 µM) | 21.8 ± 1.24 |  |
| COc1cc(-c2nc(N3N=C(c4c5ccccc5cc5ccccc45)CC3c3cc(OC)c(OC)c(OC)c3)[nH]c(=O)c2C#N)cc(OC)c1OC (centres unmarked) [Compound 4o, 2-[3-Anthracene-9-yl-5–(3,4,5-trimethoxy-phenyl)-4,5-dihydro-pyrazol-1-yl]-6-oxo-4–(3,4,5-trimethoxy-phenyl)-1,6-dihydro-pyrimidine-5-carbonitrile] | 165 to 166 |  |  | 10.2 ± 1.02 | 28.1 ± 3.31 (≈ 40.2 µM) | 14.5 ± 1.24 |  |
| O=C(/C=C/c1c[nH]c2ccccc12)c1c2ccccc2cc2ccccc12 [Compound 3d, (2E)-1–(9-anthryl)-3-(1H-indol-3-yl)prop-2-en-1-one] | 170 to 172 |  |  | 22.5 ± 2.8 | 40.8 ± 4.72 (≈ 117 µM) | 22.6 ± 3.3 |  |
| N#Cc1c(-c2ccccc2)nc(NN)[nH]c1=O [Compound 2a] |  |  |  | 20.8 ± 1.6 | 40 ± 1.24 (≈ 176 µM) | 21.7 ± 1.18 |  |
| COc1cc(-c2nc(N3N=C(c4c5ccccc5cc5ccccc45)CC3c3c[nH]c4ccccc34)[nH]c(=O)c2C#N)cc(OC)c1OC (centres unmarked) [Compound 4p, 2-[3-Anthracene-9-yl-5-(1H-indol-3-yl)-4,5-dihydro-pyrazol-1-yl]-6-oxo-4–(3,4,5-trimethoxy-phenyl)-1,6-dihydro-pyrimidine-5-carbonitrile] |  |  |  | 11.2 ± 1.2 | 18.2 ± 4.02 (≈ 28.2 µM) | 8.14 ± 1.65 |  |
| CN(C)c1ccc(/C=C/C(=O)c2c3ccccc3cc3ccccc23)cc1 [Compound 3b] |  |  |  | 21.4 ± 2.76 | 40.7 ± 2.34 (≈ 116 µM) | 21 ± 1.12 |  |

Second part, led by results:

| melting point [°C] | IC50 (Huh-7 cell line; Huh-7, converted from μg/mL, read-out: IC50 against Huh-7 cell line, equivalent in μM) [µM] | IC50 (HepG2 cell line; HepG2, converted from μg/mL, read-out: IC50 against HepG2 cell line, equivalent in μM) [µM] | Structure (SMILES) | IC50 (HepG2 cell line; [2]) [µg/mL] | IC50 at 48 h [1] [µg/mL] | IC50 (Huh-7 cell line; [3]) [µg/mL] | Cytotoxic activity IC50, HepG2 cell line (HepG2 cell line; resazurin assay, 48 h, M ± SEM of three independent experiments) [µg/mL] |
| --- | --- | --- | --- | --- | --- | --- | --- |
| 170 to 172 |  |  | COc1cc(-c2nc(N3N=C(c4c5ccccc5cc5ccccc45)CC3c3ccc(N(C)C)cc3)[nH]c(=O)c2C#N)cc(OC)c1OC (centres unmarked) [Compound 4n, 2-[3-Anthracene-9-yl-5–(4-dimethylamino-phenyl)-4,5-dihydro-pyrazol-1-yl]-6-oxo-4–(3,4,5-trimethoxy-phenyl)-1,6-dihydro-pyrimidine-5-carbonitrile] | 9.66 ± 1.31 | 18.6 ± 3.17 (≈ 28.5 µM) | 9.54 ± 2.16 |  |
| 240 to 242 |  |  | CN(C)c1ccc(C2CC(c3c4ccccc4cc4ccccc34)=NN2c2nc(-c3c[nH]c4ccccc34)c(C#N)c(=O)[nH]2)cc1 (centres unmarked) [Compound 4j, 2-[3-Anthracene-9-yl-5–(4-dimethylamino-phenyl)-4,5-dihydro-pyrazol-1-yl]-4-(1H-indol-3-yl)-6-oxo-1,6-dihydro-pyrimidine-5-carbonitrile] | 12.2 ± 2.53 | 34.1 ± 5.17 (≈ 56.9 µM) | 13.2 ± 3.05 |  |
|  | 7.6 |  | COc1cc(C2CC(c3c4ccccc4cc4ccccc34)=NN2c2nc(-c3ccc(F)cc3)c(C#N)c(=O)[nH]2)cc(OC)c1OC (centres unmarked) [Compound 4g, 2-[3-Anthracene-9-yl-5–(3,4,5-trimethoxy-phenyl)-4,5-dihydro-pyrazol-1-yl]-4–(4-fluoro-phenyl)-6-oxo-1,6-dihydro-pyrimidine-5-carbonitrile] | 7.22 ± 1.85 | 25.3 ± 4.87 (≈ 40.5 µM) | 4.78 ± 0.24 |  |
| 150 to 151 |  |  | N#Cc1c(-c2ccccc2)nc(N2N=C(c3c4ccccc4cc4ccccc34)CC2c2ccc(F)cc2)[nH]c1=O (centres unmarked) [Compound 4a, 2-[3-Anthracene-9-yl-5–(4-fluoro-phenyl)-4,5-dihydro-pyrazol-1-yl]-6-oxo-4-phenyl-1,6-dihydro-pyrimidine-5-carbonitrile] | 11.3 ± 2.11 | 32.3 ± 5.22 (≈ 60.3 µM) | 16.8 ± 3.45 |  |
|  |  | 7.2 | CN(C)c1ccc(C2CC(c3c4ccccc4cc4ccccc34)=NN2c2nc(-c3ccc(F)cc3)c(C#N)c(=O)[nH]2)cc1 (centres unmarked) [Compound 4f, 2-[3-Anthracene-9-yl-5–(4-dimethylamino-phenyl)-4,5-dihydro-pyrazol-1-yl]-4–(4-fluoro-phenyl)-6-oxo-1,6-dihydro-pyrimidine-5-carbonitrile] | 4.2 | 33.1 ± 6.52 (≈ 57.3 µM) | 8.45 ± 0.75 | 4.22 ± 0.94 |
